Data reported in ChEMBL document CHEMBL3272010, “Antimycotic imidazoles. 3. Synthesis and antimycotic properties of 1-[2-(aryloxyalkyl)-2-phenylethyl]-1H-imidazoles” (1977).
Calls of active or inactive are those of the source. The calls are words filed in the database; no cut-off is given here.

tested on: Trichophyton rubrum; test: Antifungal activity against Trichophyton rubrum assessed as lowest dose required to total inhibition of fungal growth; type: functional

Structure (SMILES) | GI [µg/mL]
Clc1ccc(OCCC(Cn2ccnc2)c2ccc(Cl)cc2Cl)c(Cl)c1.O=C(O)C(=O)O (configuration not stated) | <1
Clc1ccc(C(CCOc2ccccc2Cl)Cn2ccnc2)c(Cl)c1.O=C(O)C(=O)O (configuration not stated) | <1
Clc1ccc(C(CCCOc2ccccc2Br)Cn2ccnc2)c(Cl)c1.O=C(O)C(=O)O (configuration not stated) | <1
Clc1ccc(C(COc2ccccc2Cl)Cn2ccnc2)cc1.O=[N+]([O-])O (configuration not stated) | 10
Clc1ccc(OCC(Cn2ccnc2)c2ccc(Cl)cc2)cc1.O=[N+]([O-])O (configuration not stated) | <1

tested on: Saprolegnia; test: Antifungal activity against Saprolegnia species assessed as lowest dose required to total inhibition of fungal growth; type: functional

Structure (SMILES) | GI [µg/mL]
Clc1ccc(OCCC(Cn2ccnc2)c2ccc(Cl)cc2Cl)c(Cl)c1.O=C(O)C(=O)O (configuration not stated) | 100
Clc1ccc(C(CCOc2ccccc2Cl)Cn2ccnc2)c(Cl)c1.O=C(O)C(=O)O (configuration not stated) | 100
Clc1ccc(C(CCCOc2ccccc2Br)Cn2ccnc2)c(Cl)c1.O=C(O)C(=O)O (configuration not stated) | 100
Clc1ccc(C(COc2ccccc2Cl)Cn2ccnc2)cc1.O=[N+]([O-])O (configuration not stated) | >100
Clc1ccc(OCC(Cn2ccnc2)c2ccc(Cl)cc2)cc1.O=[N+]([O-])O (configuration not stated) | 100

tested on: Aspergillus fumigatus; test: Antifungal activity against Aspergillus fumigatus assessed as lowest dose required to total inhibition of fungal growth; type: functional

Structure (SMILES) | GI [µg/mL]
Clc1ccc(OCCC(Cn2ccnc2)c2ccc(Cl)cc2Cl)c(Cl)c1.O=C(O)C(=O)O (configuration not stated) | 100
Clc1ccc(C(CCOc2ccccc2Cl)Cn2ccnc2)c(Cl)c1.O=C(O)C(=O)O (configuration not stated) | >100
Clc1ccc(C(CCCOc2ccccc2Br)Cn2ccnc2)c(Cl)c1.O=C(O)C(=O)O (configuration not stated) | 100
Clc1ccc(C(COc2ccccc2Cl)Cn2ccnc2)cc1.O=[N+]([O-])O (configuration not stated) | >100
Clc1ccc(OCC(Cn2ccnc2)c2ccc(Cl)cc2)cc1.O=[N+]([O-])O (configuration not stated) | 100

tested on: Cryptococcus neoformans; test: Antifungal activity against Cryptococcus neoformans assessed as lowest dose required to total inhibition of fungal growth; type: functional

Structure (SMILES) | GI [µg/mL]
Clc1ccc(OCCC(Cn2ccnc2)c2ccc(Cl)cc2Cl)c(Cl)c1.O=C(O)C(=O)O (configuration not stated) | <1
Clc1ccc(C(CCOc2ccccc2Cl)Cn2ccnc2)c(Cl)c1.O=C(O)C(=O)O (configuration not stated) | <1
Clc1ccc(C(CCCOc2ccccc2Br)Cn2ccnc2)c(Cl)c1.O=C(O)C(=O)O (configuration not stated) | <1
Clc1ccc(C(COc2ccccc2Cl)Cn2ccnc2)cc1.O=[N+]([O-])O (configuration not stated) | <1
Clc1ccc(OCC(Cn2ccnc2)c2ccc(Cl)cc2)cc1.O=[N+]([O-])O (configuration not stated) | <1

tested on: Trichophyton mentagrophytes; test: Antifungal activity against Trichophyton mentagrophytes assessed as lowest dose required to total inhibition of fungal growth; type: functional

Structure (SMILES) | GI [µg/mL]
Clc1ccc(OCCC(Cn2ccnc2)c2ccc(Cl)cc2Cl)c(Cl)c1.O=C(O)C(=O)O (configuration not stated) | <1
Clc1ccc(C(CCOc2ccccc2Cl)Cn2ccnc2)c(Cl)c1.O=C(O)C(=O)O (configuration not stated) | <1
Clc1ccc(C(CCCOc2ccccc2Br)Cn2ccnc2)c(Cl)c1.O=C(O)C(=O)O (configuration not stated) | <1
Clc1ccc(C(COc2ccccc2Cl)Cn2ccnc2)cc1.O=[N+]([O-])O (configuration not stated) | <1
Clc1ccc(OCC(Cn2ccnc2)c2ccc(Cl)cc2)cc1.O=[N+]([O-])O (configuration not stated) | <1

tested on: Candida tropicalis; test: Antifungal activity against Candida tropicalis assessed as lowest dose required to total inhibition of fungal growth; type: functional

Structure (SMILES) | GI [µg/mL]
Clc1ccc(OCCC(Cn2ccnc2)c2ccc(Cl)cc2Cl)c(Cl)c1.O=C(O)C(=O)O (configuration not stated) | >100
Clc1ccc(C(CCOc2ccccc2Cl)Cn2ccnc2)c(Cl)c1.O=C(O)C(=O)O (configuration not stated) | >100
Clc1ccc(C(CCCOc2ccccc2Br)Cn2ccnc2)c(Cl)c1.O=C(O)C(=O)O (configuration not stated) | >100
Clc1ccc(C(COc2ccccc2Cl)Cn2ccnc2)cc1.O=[N+]([O-])O (configuration not stated) | >100
Clc1ccc(OCC(Cn2ccnc2)c2ccc(Cl)cc2)cc1.O=[N+]([O-])O (configuration not stated) | >100

tested on: Erysipelothrix rhusiopathiae; test: Antibaterial activity against Erysipelothrix insidiosa assessed as lowest dose required to total inhibition of bacterial growth; type: functional

Structure (SMILES) | GI [µg/mL]
Clc1ccc(OCCC(Cn2ccnc2)c2ccc(Cl)cc2Cl)c(Cl)c1.O=C(O)C(=O)O (configuration not stated) | <1
Clc1ccc(C(CCOc2ccccc2Cl)Cn2ccnc2)c(Cl)c1.O=C(O)C(=O)O (configuration not stated) | <1
Clc1ccc(C(CCCOc2ccccc2Br)Cn2ccnc2)c(Cl)c1.O=C(O)C(=O)O (configuration not stated) | <1
Clc1ccc(C(COc2ccccc2Cl)Cn2ccnc2)cc1.O=[N+]([O-])O (configuration not stated) | 1
Clc1ccc(OCC(Cn2ccnc2)c2ccc(Cl)cc2)cc1.O=[N+]([O-])O (configuration not stated) | 1

tested on: Candida albicans; test: Antifungal activity against Candida albicans infected in guinea pig at 10 mg/kg, po qd; type: functional, organism-based; design: dose 10 mg/kg

Structure (SMILES) | Activity
Clc1ccc(OCCC(Cn2ccnc2)c2ccc(Cl)cc2Cl)c(Cl)c1.O=C(O)C(=O)O (configuration not stated) | Active
Clc1ccc(C(CCOc2ccccc2Cl)Cn2ccnc2)c(Cl)c1.O=C(O)C(=O)O (configuration not stated) | inactive

tested on: Sporothrix schenckii; test: Antifungal activity against Sporothrix schenckii assessed as lowest dose required to total inhibition of fungal growth; type: functional

Structure (SMILES) | GI [µg/mL]
Clc1ccc(OCCC(Cn2ccnc2)c2ccc(Cl)cc2Cl)c(Cl)c1.O=C(O)C(=O)O (configuration not stated) | 100
Clc1ccc(C(CCOc2ccccc2Cl)Cn2ccnc2)c(Cl)c1.O=C(O)C(=O)O (configuration not stated) | 10
Clc1ccc(C(CCCOc2ccccc2Br)Cn2ccnc2)c(Cl)c1.O=C(O)C(=O)O (configuration not stated) | 10
Clc1ccc(C(COc2ccccc2Cl)Cn2ccnc2)cc1.O=[N+]([O-])O (configuration not stated) | 10
Clc1ccc(OCC(Cn2ccnc2)c2ccc(Cl)cc2)cc1.O=[N+]([O-])O (configuration not stated) | 10

tested on: Streptococcus pyogenes; test: Antibaterial activity against Streptococcus pyogenes assessed as lowest dose required to total inhibition of bacterial growth; type: functional

Structure (SMILES) | GI [µg/mL]
Clc1ccc(OCCC(Cn2ccnc2)c2ccc(Cl)cc2Cl)c(Cl)c1.O=C(O)C(=O)O (configuration not stated) | <1
Clc1ccc(C(CCOc2ccccc2Cl)Cn2ccnc2)c(Cl)c1.O=C(O)C(=O)O (configuration not stated) | <1
Clc1ccc(C(CCCOc2ccccc2Br)Cn2ccnc2)c(Cl)c1.O=C(O)C(=O)O (configuration not stated) | <1
Clc1ccc(C(COc2ccccc2Cl)Cn2ccnc2)cc1.O=[N+]([O-])O (configuration not stated) | 1
Clc1ccc(OCC(Cn2ccnc2)c2ccc(Cl)cc2)cc1.O=[N+]([O-])O (configuration not stated) | <1

tested on: Microsporum canis; test: Antifungal activity against Microsporum canis assessed as lowest dose required to total inhibition of fungal growth; type: functional

Structure (SMILES) | GI [µg/mL]
Clc1ccc(OCCC(Cn2ccnc2)c2ccc(Cl)cc2Cl)c(Cl)c1.O=C(O)C(=O)O (configuration not stated) | 10
Clc1ccc(C(CCOc2ccccc2Cl)Cn2ccnc2)c(Cl)c1.O=C(O)C(=O)O (configuration not stated) | 10
Clc1ccc(C(CCCOc2ccccc2Br)Cn2ccnc2)c(Cl)c1.O=C(O)C(=O)O (configuration not stated) | <1
Clc1ccc(C(COc2ccccc2Cl)Cn2ccnc2)cc1.O=[N+]([O-])O (configuration not stated) | 100
Clc1ccc(OCC(Cn2ccnc2)c2ccc(Cl)cc2)cc1.O=[N+]([O-])O (configuration not stated) | <1

tested on: Mucor; test: Antifungal activity against Mucor species assessed as lowest dose required to total inhibition of fungal growth; type: functional

Structure (SMILES) | GI [µg/mL]
Clc1ccc(OCCC(Cn2ccnc2)c2ccc(Cl)cc2Cl)c(Cl)c1.O=C(O)C(=O)O (configuration not stated) | 100
Clc1ccc(C(CCOc2ccccc2Cl)Cn2ccnc2)c(Cl)c1.O=C(O)C(=O)O (configuration not stated) | >100
Clc1ccc(C(CCCOc2ccccc2Br)Cn2ccnc2)c(Cl)c1.O=C(O)C(=O)O (configuration not stated) | >100
Clc1ccc(C(COc2ccccc2Cl)Cn2ccnc2)cc1.O=[N+]([O-])O (configuration not stated) | 100
Clc1ccc(OCC(Cn2ccnc2)c2ccc(Cl)cc2)cc1.O=[N+]([O-])O (configuration not stated) | 10

tested on: Candida albicans; test: Antifungal activity against Candida albicans assessed as lowest dose required to total inhibition of fungal growth; type: functional

Structure (SMILES) | GI [µg/mL]
Clc1ccc(OCCC(Cn2ccnc2)c2ccc(Cl)cc2Cl)c(Cl)c1.O=C(O)C(=O)O (configuration not stated) | 100
Clc1ccc(C(CCOc2ccccc2Cl)Cn2ccnc2)c(Cl)c1.O=C(O)C(=O)O (configuration not stated) | >100
Clc1ccc(C(CCCOc2ccccc2Br)Cn2ccnc2)c(Cl)c1.O=C(O)C(=O)O (configuration not stated) | 100
Clc1ccc(C(COc2ccccc2Cl)Cn2ccnc2)cc1.O=[N+]([O-])O (configuration not stated) | 100
Clc1ccc(OCC(Cn2ccnc2)c2ccc(Cl)cc2)cc1.O=[N+]([O-])O (configuration not stated) | >100

tested on: Staphylococcus haemolyticus; test: Antibaterial activity against Staphylococcus haemolyticus assessed as lowest dose required to total inhibition of bacterial growth; type: functional

Structure (SMILES) | GI [µg/mL]
Clc1ccc(OCCC(Cn2ccnc2)c2ccc(Cl)cc2Cl)c(Cl)c1.O=C(O)C(=O)O (configuration not stated) | 1
Clc1ccc(C(CCOc2ccccc2Cl)Cn2ccnc2)c(Cl)c1.O=C(O)C(=O)O (configuration not stated) | 1
Clc1ccc(C(CCCOc2ccccc2Br)Cn2ccnc2)c(Cl)c1.O=C(O)C(=O)O (configuration not stated) | 10
Clc1ccc(C(COc2ccccc2Cl)Cn2ccnc2)cc1.O=[N+]([O-])O (configuration not stated) | 10
Clc1ccc(OCC(Cn2ccnc2)c2ccc(Cl)cc2)cc1.O=[N+]([O-])O (configuration not stated) | 10

tested on: Phialophora verrucosa; test: Antifungal activity against Phialophora verrucosa assessed as lowest dose required to total inhibition of fungal growth; type: functional

Structure (SMILES) | GI [µg/mL]
Clc1ccc(OCCC(Cn2ccnc2)c2ccc(Cl)cc2Cl)c(Cl)c1.O=C(O)C(=O)O (configuration not stated) | 100
Clc1ccc(C(CCOc2ccccc2Cl)Cn2ccnc2)c(Cl)c1.O=C(O)C(=O)O (configuration not stated) | 100
Clc1ccc(C(CCCOc2ccccc2Br)Cn2ccnc2)c(Cl)c1.O=C(O)C(=O)O (configuration not stated) | 100
Clc1ccc(C(COc2ccccc2Cl)Cn2ccnc2)cc1.O=[N+]([O-])O (configuration not stated) | >100
Clc1ccc(OCC(Cn2ccnc2)c2ccc(Cl)cc2)cc1.O=[N+]([O-])O (configuration not stated) | 100
